Drawing on ChEMBL document CHEMBL3390848, “Affinity selection and sequence-activity relationships of HIV-1 membrane fusion inhibitors directed at the drug-resistant variants” (Medchemcomm, 2010), this text covers EC50, Activity and Tm for 7 compounds.

Molecules are shown by their SMILES. Residues, ends and D or L forms follow the SMILES beside them.

Assay [1] has as its system Human immunodeficiency virus 1. In words: Antiviral activity against HIV1 NL4-3 harboring gp41 D36G mutant infected in human HeLa cells expressing CD4-LTR-beta-gal assessed as inhibition of viral replication after 48 hrs by MAGI assay. It is filed as functional, organism-based.
Assay [2] has as its system Human immunodeficiency virus 1. In words: Binding affinity to HIV1 His-tagged N-terminal heptad repeat of envelope glycoprotein gp41 assessed as recovery of N54-drug complex after 2 hrs by LC-MS analysis. Also on record: concentration or dose not given beside the values.
Assay [3] concerns Human immunodeficiency virus 1. Kind of assay: Thermal stability of HIV1 envelope glycoprotein gp41 His-tagged N-terminal heptad repeat N54-drug complex assessed as thermal unfolding transition state by measuring molar ellipticity at 4 to 90 degC by circular dichroic spectra analysis.

With `CC[C@H](C)[C@H](NC(=O)[C@H](CC(C)C)NC(=O)[C@H](CCC(=O)O)NC(=O)[C@H](CCC(=O)O)NC(=O)[C@@H](NC(=O)[C@H](CC(C)C)NC(=O)[C@H](CO)NC(=O)[C@@H](NC(=O)[C@H](Cc1ccc(O)cc1)NC(C)=O)[C@@H](C)O)[C@@H](C)CC)C(=O)N[C@@H](CCCCN)C(=O)N[C@@H](CCCCN)C(=O)N[C@@H](CCCNC(=N)N)C(=O)N[C@@H](CCC(=O)O)C(=O)N[C@@H](CCC(=O)O)C(=O)N[C@@H](CCC(N)=O)C(=O)N[C@@H](CCC(N)=O)C(=O)N[C@@H](CCCCN)C(=O)N[C@@H](CCCCN)C(=O)N[C@@H](CC(N)=O)C(=O)N[C@@H](CCC(=O)O)C(=O)N[C@@H](CCC(=O)O)C(=O)N[C@@H](CCC(=O)O)C(=O)N[C@@H](CC(C)C)C(=O)N[C@@H](CCCCN)C(=O)N[C@@H](CCCCN)C(=O)N[C@@H](CC(C)C)C(=O)N[C@@H](CCC(=O)O)C(=O)N[C@@H](CCC(=O)O)C(=O)N[C@@H](Cc1c[nH]c2ccccc12)C(=O)N[C@@H](C)C(=O)N[C@@H](CCCCN)C(=O)N[C@@H](CCCCN)C(=O)N[C@@H](Cc1c[nH]c2ccccc12)C(=O)N[C@@H](CC(N)=O)C(=O)N[C@@H](Cc1c[nH]c2ccccc12)C(=O)N[C@@H](Cc1ccccc1)C(=O)O` (Ac-YTSLIEELIKKREEQQKKNEEELKKLEEWAKKWNWF-OH), in assay [1], the EC50 was found to be 320 nM. For the same compound, in assay [2], the Activity worked out at 1.5%. Also, in assay [3], the melting temperature (Tm) was 49.4 °C.

For `CC[C@H](C)[C@H](NC(=O)[C@H](CC(C)C)NC(=O)[C@H](CCC(=O)O)NC(=O)[C@H](CCC(=O)O)NC(=O)[C@@H](NC(=O)[C@H](CC(C)C)NC(=O)[C@H](CO)NC(=O)[C@@H](NC(=O)[C@H](Cc1ccc(O)cc1)NC(C)=O)[C@@H](C)O)[C@@H](C)CC)C(=O)N[C@@H](CCCCN)C(=O)N[C@@H](CCCCN)C(=O)N[C@@H](CO)C(=O)N[C@@H](CCC(=O)O)C(=O)N[C@@H](CCC(=O)O)C(=O)N[C@@H](C)C(=O)N[C@@H](CCC(N)=O)C(=O)N[C@@H](CCCCN)C(=O)N[C@@H](CCCCN)C(=O)N[C@@H](CC(N)=O)C(=O)N[C@@H](CCC(=O)O)C(=O)N[C@@H](CCC(=O)O)C(=O)N[C@@H](CCC(=O)O)C(=O)N[C@@H](CC(C)C)C(=O)N[C@@H](CCCCN)C(=O)N[C@@H](CCCCN)C(=O)N[C@@H](CC(C)C)C(=O)N[C@@H](CCC(=O)O)C(=O)N[C@@H](CCC(=O)O)C(=O)N[C@@H](Cc1c[nH]c2ccccc12)C(=O)N[C@@H](C)C(=O)N[C@@H](CCCCN)C(=O)N[C@@H](CCCCN)C(=O)N[C@@H](Cc1c[nH]c2ccccc12)C(=O)N[C@@H](CC(N)=O)C(=O)N[C@@H](Cc1c[nH]c2ccccc12)C(=O)N[C@@H](Cc1ccccc1)C(N)=O` (Ac-YTSLIEELIKKSEEAQKKNEEELKKLEEWAKKWNWF-NH2), in assay [1], the EC50 turned out to be 2.7 nM. Besides, in assay [2], the Activity was 5.6%. Also, the Tm in assay [3] was 70.4 °C.

For `CC[C@H](C)[C@H](NC(=O)[C@H](CC(C)C)NC(=O)[C@H](CCC(=O)O)NC(=O)[C@H](CCC(=O)O)NC(=O)[C@@H](NC(=O)[C@H](CC(C)C)NC(=O)[C@H](CO)NC(=O)[C@@H](NC(=O)[C@H](Cc1ccc(O)cc1)NC(C)=O)[C@@H](C)O)[C@@H](C)CC)C(=O)N[C@@H](CCCCN)C(=O)N[C@@H](CCCCN)C(=O)N[C@@H](CO)C(=O)N[C@@H](CCC(=O)O)C(=O)N[C@@H](CCC(=O)O)C(=O)N[C@@H](CC(=O)O)C(=O)N[C@@H](CCC(N)=O)C(=O)N[C@@H](CCCCN)C(=O)N[C@@H](CCCCN)C(=O)N[C@@H](CC(N)=O)C(=O)N[C@@H](CCC(=O)O)C(=O)N[C@@H](CCC(=O)O)C(=O)N[C@@H](CCC(=O)O)C(=O)N[C@@H](CC(C)C)C(=O)N[C@@H](CCCCN)C(=O)N[C@@H](CCCCN)C(=O)N[C@@H](CC(C)C)C(=O)N[C@@H](CCC(=O)O)C(=O)N[C@@H](CCC(=O)O)C(=O)N[C@@H](Cc1c[nH]c2ccccc12)C(=O)N[C@@H](C)C(=O)N[C@@H](CCCCN)C(=O)N[C@@H](CCCCN)C(=O)N[C@@H](Cc1c[nH]c2ccccc12)C(=O)N[C@@H](CC(N)=O)C(=O)N[C@@H](Cc1c[nH]c2ccccc12)C(=O)N[C@@H](Cc1ccccc1)C(N)=O` (Ac-YTSLIEELIKKSEEDQKKNEEELKKLEEWAKKWNWF-NH2), the concentration for a half-maximal effect (EC50) in assay [1] amounted to 3.5 nM. Besides, the Activity in assay [2] turned out to be 8.2%. The Tm in assay [3] was determined as 71.4 °C.

Turning to `CC[C@H](C)[C@H](NC(=O)[C@H](CC(C)C)NC(=O)[C@H](CCC(=O)O)NC(=O)[C@H](CCC(=O)O)NC(=O)[C@@H](NC(=O)[C@H](CC(C)C)NC(=O)[C@H](CO)NC(=O)[C@@H](NC(=O)[C@H](Cc1ccc(O)cc1)NC(C)=O)[C@@H](C)O)[C@@H](C)CC)C(=O)N[C@@H](CCCCN)C(=O)N[C@@H](CCCCN)C(=O)N[C@@H](CO)C(=O)N[C@@H](CCC(=O)O)C(=O)N[C@@H](CCC(=O)O)C(=O)N[C@@H](CCC(=O)O)C(=O)N[C@@H](CCC(N)=O)C(=O)N[C@@H](CCCCN)C(=O)N[C@@H](CCCCN)C(=O)N[C@@H](CC(N)=O)C(=O)N[C@@H](CCC(=O)O)C(=O)N[C@@H](CCC(=O)O)C(=O)N[C@@H](CCC(=O)O)C(=O)N[C@@H](CC(C)C)C(=O)N[C@@H](CCCCN)C(=O)N[C@@H](CCCCN)C(=O)N[C@@H](CC(C)C)C(=O)N[C@@H](CCC(=O)O)C(=O)N[C@@H](CCC(=O)O)C(=O)N[C@@H](Cc1c[nH]c2ccccc12)C(=O)N[C@@H](C)C(=O)N[C@@H](CCCCN)C(=O)N[C@@H](CCCCN)C(=O)N[C@@H](Cc1c[nH]c2ccccc12)C(=O)N[C@@H](CC(N)=O)C(=O)N[C@@H](Cc1c[nH]c2ccccc12)C(=O)N[C@@H](Cc1ccccc1)C(N)=O` (Ac-YTSLIEELIKKSEEEQKKNEEELKKLEEWAKKWNWF-NH2), in assay [1], the concentration giving a half-maximal response (EC50) amounted to 3.8 nM. Moreover, in assay [2], the Activity is 8.2%. The Tm in assay [3] stood at 71.8 °C.

With `CC[C@H](C)[C@H](NC(=O)[C@H](CC(C)C)NC(=O)[C@H](CCC(=O)O)NC(=O)[C@H](CCC(=O)O)NC(=O)[C@@H](NC(=O)[C@H](CC(C)C)NC(=O)[C@H](CO)NC(=O)[C@@H](NC(=O)[C@H](Cc1ccc(O)cc1)NC(C)=O)[C@@H](C)O)[C@@H](C)CC)C(=O)N[C@@H](CCCCN)C(=O)N[C@@H](CCCCN)C(=O)N[C@@H](CO)C(=O)N[C@@H](CCC(=O)O)C(=O)N[C@@H](CCC(=O)O)C(=O)N[C@@H](Cc1ccccc1)C(=O)N[C@@H](CCC(N)=O)C(=O)N[C@@H](CCCCN)C(=O)N[C@@H](CCCCN)C(=O)N[C@@H](CC(N)=O)C(=O)N[C@@H](CCC(=O)O)C(=O)N[C@@H](CCC(=O)O)C(=O)N[C@@H](CCC(=O)O)C(=O)N[C@@H](CC(C)C)C(=O)N[C@@H](CCCCN)C(=O)N[C@@H](CCCCN)C(=O)N[C@@H](CC(C)C)C(=O)N[C@@H](CCC(=O)O)C(=O)N[C@@H](CCC(=O)O)C(=O)N[C@@H](Cc1c[nH]c2ccccc12)C(=O)N[C@@H](C)C(=O)N[C@@H](CCCCN)C(=O)N[C@@H](CCCCN)C(=O)N[C@@H](Cc1c[nH]c2ccccc12)C(=O)N[C@@H](CC(N)=O)C(=O)N[C@@H](Cc1c[nH]c2ccccc12)C(=O)N[C@@H](Cc1ccccc1)C(N)=O` (Ac-YTSLIEELIKKSEEFQKKNEEELKKLEEWAKKWNWF-NH2), in assay [1], the EC50 stood at 2.6 nM. In addition, in assay [2], the Activity was 5.3%. In assay [3], the midpoint of thermal melting (Tm) came to 64 °C.

In the case of `CC[C@H](C)[C@H](NC(=O)[C@H](CC(C)C)NC(=O)[C@H](CCC(=O)O)NC(=O)[C@H](CCC(=O)O)NC(=O)[C@@H](NC(=O)[C@H](CC(C)C)NC(=O)[C@H](CO)NC(=O)[C@@H](NC(=O)[C@H](Cc1ccc(O)cc1)NC(C)=O)[C@@H](C)O)[C@@H](C)CC)C(=O)N[C@@H](CCCCN)C(=O)N[C@@H](CCCCN)C(=O)N[C@@H](CO)C(=O)N[C@@H](CCC(=O)O)C(=O)N[C@@H](CCC(=O)O)C(=O)NCC(=O)N[C@@H](CCC(N)=O)C(=O)N[C@@H](CCCCN)C(=O)N[C@@H](CCCCN)C(=O)N[C@@H](CC(N)=O)C(=O)N[C@@H](CCC(=O)O)C(=O)N[C@@H](CCC(=O)O)C(=O)N[C@@H](CCC(=O)O)C(=O)N[C@@H](CC(C)C)C(=O)N[C@@H](CCCCN)C(=O)N[C@@H](CCCCN)C(=O)N[C@@H](CC(C)C)C(=O)N[C@@H](CCC(=O)O)C(=O)N[C@@H](CCC(=O)O)C(=O)N[C@@H](Cc1c[nH]c2ccccc12)C(=O)N[C@@H](C)C(=O)N[C@@H](CCCCN)C(=O)N[C@@H](CCCCN)C(=O)N[C@@H](Cc1c[nH]c2ccccc12)C(=O)N[C@@H](CC(N)=O)C(=O)N[C@@H](Cc1c[nH]c2ccccc12)C(=O)N[C@@H](Cc1ccccc1)C(N)=O` (Ac-YTSLIEELIKKSEEGQKKNEEELKKLEEWAKKWNWF-NH2), the EC50 in assay [1] was 3 nM. Besides, the Activity in assay [2] was determined as 3.4%. The Tm in assay [3] was 66.2 °C.

Regarding `CC[C@H](C)[C@H](NC(=O)[C@H](CC(C)C)NC(=O)[C@H](CCC(=O)O)NC(=O)[C@H](CCC(=O)O)NC(=O)[C@@H](NC(=O)[C@H](CC(C)C)NC(=O)[C@H](CO)NC(=O)[C@@H](NC(=O)[C@H](Cc1ccc(O)cc1)NC(C)=O)[C@@H](C)O)[C@@H](C)CC)C(=O)N[C@@H](CCCCN)C(=O)N[C@@H](CCCCN)C(=O)N[C@@H](CO)C(=O)N[C@@H](CCC(=O)O)C(=O)N[C@@H](CCC(=O)O)C(=O)N[C@@H](Cc1cnc[nH]1)C(=O)N[C@@H](CCC(N)=O)C(=O)N[C@@H](CCCCN)C(=O)N[C@@H](CCCCN)C(=O)N[C@@H](CC(N)=O)C(=O)N[C@@H](CCC(=O)O)C(=O)N[C@@H](CCC(=O)O)C(=O)N[C@@H](CCC(=O)O)C(=O)N[C@@H](CC(C)C)C(=O)N[C@@H](CCCCN)C(=O)N[C@@H](CCCCN)C(=O)N[C@@H](CC(C)C)C(=O)N[C@@H](CCC(=O)O)C(=O)N[C@@H](CCC(=O)O)C(=O)N[C@@H](Cc1c[nH]c2ccccc12)C(=O)N[C@@H](C)C(=O)N[C@@H](CCCCN)C(=O)N[C@@H](CCCCN)C(=O)N[C@@H](Cc1c[nH]c2ccccc12)C(=O)N[C@@H](CC(N)=O)C(=O)N[C@@H](Cc1c[nH]c2ccccc12)C(=O)N[C@@H](Cc1ccccc1)C(N)=O` (Ac-YTSLIEELIKKSEEHQKKNEEELKKLEEWAKKWNWF-NH2), the EC50 in assay [1] stood at 3 nM. Also, the Activity in assay [2] worked out at 3.7%. In addition, the Tm in assay [3] is 68.4 °C.

One may read the EC50 as the concentration at which the effect is half-maximal. Broadly, the Tm is the temperature at which the thermal transition is half complete.
